{"source": "patent US9663478B2", "about": "“Benzotriazine oxides as drugs targeting Mycobacterium tuberculosis” (priority 2011, dated 2017)", "key": {"[1]": {"tested_on": "Mtb H37Rv", "assay": "TB MIC - SRI, resazurin-based microplate assay", "format": "cell-based, Mycobacterium tuberculosis", "settings": "for MIC: Mycobacterium tuberculosis, H37RV"}, "[2]": {"tested_on": "NRP Mtb H37Rv cells", "assay": "Low-oxygen recovery assay (LORA) MIC", "format": "cell-based, Mycobacterium tuberculosis", "settings": "Mycobacterium tuberculosis, H37RV; NRP Mtb; Tables 1-4 and text; read-out: LORA MIC - ITR"}, "[3]": {"tested_on": "Klebsiella pneumoniae ATCC 43816", "assay": "Spectrum of antimicrobial activity", "format": "cell-based"}, "[4]": {"tested_on": "Enterobacter aerogenes ATCC 29751", "assay": "Spectrum of antimicrobial activity", "format": "cell-based"}, "[5]": {"tested_on": "Enterobacter aerogenes SRI Collection", "assay": "Spectrum of antimicrobial activity", "format": "cell-based"}, "[6]": {"tested_on": "Escherichia coli BAA 201", "assay": "Spectrum of antimicrobial activity", "format": "cell-based"}, "[7]": {"tested_on": "Escherichia coli ATCC 25922", "assay": "Spectrum of antimicrobial activity", "format": "cell-based"}, "[8]": {"tested_on": "Acinetobacter baumannii BAA 1605", "assay": "Spectrum of antimicrobial activity", "format": "cell-based"}, "[9]": {"tested_on": "Staphylococcus aureus ATCC 29213", "assay": "Spectrum of antimicrobial activity", "format": "cell-based"}, "[10]": {"tested_on": "Staphylococcus aureus HA-MRSA NRS 382", "assay": "Spectrum of antimicrobial activity", "format": "cell-based"}, "[11]": {"tested_on": "Enterococcus fecalis ATCC 29212", "assay": "Spectrum of antimicrobial activity", "format": "cell-based"}, "[12]": {"tested_on": "Enterococcus fecalis ATCC 51575", "assay": "Spectrum of antimicrobial activity", "format": "cell-based"}, "[13]": {"tested_on": "Escherichia coli pKM101 SRI Collection", "assay": "Spectrum of antimicrobial activity", "format": "cell-based"}, "[14]": {"tested_on": "Salmonella typhimurium -Hisg46 SRI Collection", "assay": "Spectrum of antimicrobial activity", "format": "cell-based"}, "[15]": {"tested_on": "Salmonella choleraesuis ATCC 13311", "assay": "Spectrum of antimicrobial activity", "format": "cell-based"}, "[16]": {"tested_on": "Pseudomonas aeruginosa ATCC 27853", "assay": "Spectrum of antimicrobial activity", "format": "cell-based"}, "[17]": {"tested_on": "Enterococcus faecium ATCC 19434", "assay": "Spectrum of antimicrobial activity", "format": "cell-based"}, "[18]": {"tested_on": "Moraxella catarrhalis ATCC 25238", "assay": "Spectrum of antimicrobial activity", "format": "cell-based"}, "[19]": {"tested_on": "mouse lymphoma cell tk+/−→tk−/− gene mutation", "assay": "Mouse lymphoma cell tk+/−→tk−/− gene mutation (MOLY) assay", "format": "cell-based", "excerpt": "A liability in developing any bioreductively-activated antimicrobial drug is the potential for mutagenicity. Because the basis for activity of these compounds is the generation of intermediate radical species, undesirable mutagenicity poses a risk, as has been documented for many classes of bioreductive drugs, including the BTO tirapazamine (TPZ).^19,20 The most convenient methodology for assessing the potential to induce genetic damage is to use the plate incorporation method with Salmonella typhimurium strains TA98 and TA100, commonly known as the Ames assay. The Salmonella tester strains have mutations in the histidine operon, a mutation that leads to defective lipopolysaccharide (rfa), and a deletion that covers genes involved in the synthesis of biotin (bio) and in the repair of ultraviolet-induced DNA damage (uvrB).^21,22 These mutations make the strains more permeable to many molecules and increase their susceptibility to the mutagenic effects of these molecules. Given that the hypothesized mechanism of the BTO compounds is to selectively form cytotoxic radical species in bacteria over mammalian cells, a microbial mutagenicity assay is not ideal, but was used to benchmark their activities in this assay. […] Individual plate counts and their means and standard deviations, along with the condition of the background lawn, are presented in SI Table 2.\nExperiments were conducted using a standard procedure for evaluating mutagenic potential.^23,24 The details on cell line, experimental procedures and data interpretaion have been previously published.^54 The following endpoints were evaluated in cells following exposure to 15fa and 20q: cell growth during expression periods, relative suspension growth, relative total growth, relative cloning efficiency, mutation frequency, and numbers of small (≦0.6 mm in diameter) colonies from trifluorothymidine-resistant (TFT^r) cells."}, "[20]": {"assay": "Plasma pharmacokinetics in female mice after oral administration", "format": "in vivo, mouse", "settings": "female mice, oral, 100 mg/kg", "description": "In order to validate BTOs as a new lead series for the treatment of TB, we also evaluated their systemic exposure in the mouse after oral administration. A single dose (100 mg/kg) of 8a and 20q were administered to mice in order to profile the pharmacokinetics for the BTOs (Table 7). […] The elimination half-life was for each compound was shorter than our ideal target values, but the Tmax values indicate that they are rapidly absorbed after oral administration (FIGURE).\nAll pharmacokinetic studies were performed in accordance with SRI International's animal care policies in an AAALAC and OLAW accredited facility. The procedure for the pharmacokinetics studies followed a previously described method.^55 Briefly, the plasma pharmacokinetics of selected BTO derivatives were determined in female CD1 mice after administration of a single dose (100 mg/kg) by oral gavage. Blood was collected from three mice per time point at 5, 15, 30, and 60 min and 2, 4, 6, 8, and 24 h after dose administration. Means and standard deviations were calculated for the plasma drug concentrations at each time point. Pharmacokinetic analysis was performed using non compartmental methods (WinNonlin® Professional, Version 5.2, Pharsight Corp, Mountain View, Calif.). The following parameters were calculated: time to maximum plasma concentration (Tmax), maximum plasma concentration (Cmax), maximum plasma concentration extrapoloated to time 0 (C0), area under the plasma concentration-time curve to the last time point (AUClast) and to infinity (AUCinf)."}, "[21]": {"assay": "Plasma pharmacokinetics in female mice after oral administration", "format": "in vivo, mouse", "settings": "female Balb/c mice, po 100 mg/kg"}, "[22]": {"tested_on": "Vero cells", "assay": "Cytotoxicity against Vero cells (Cell Titer-Glo)", "settings": "72 h; Tables 1-4 and text"}}, "note": "“Also recorded” adds a separate entry of the source. Like-named read-outs stand apart in the source and are kept apart here.", "data": [{"smiles": "[O-][n+]1nc(N2CCCC2)[n+]([O-])c2cc3c(cc21)CCC3", "note": "[Compound 20q, 3-(pyrrolidin-1-yl)-7,8-dihydro-6H-indeno[5,6-e][1,2,4]triazine 1,4-dioxide]", "values": [{"measurement": "MIC", "setting": "[1]; read-out: MIC, H37Rv, Table 5", "result": 0.62, "unit": "µg/mL"}, {"measurement": "MIC", "setting": "[1]; read-out: TB MIC - SRI, Tables 1-4 and text", "result": 0.31, "unit": "µg/mL"}, {"measurement": "Antimicrobial activity, Mtb H37Rv", "setting": "[1]; source CSU, SI Table 1", "result": 0.31, "unit": "µg/mL"}, {"measurement": "MIC", "setting": "[2]", "result": 0.99, "unit": "µg/mL"}, {"measurement": "Antimicrobial activity, Klebsiella pneumoniae", "setting": "[3]", "result": ">32", "unit": "µg/mL"}, {"measurement": "Antimicrobial activity, Enterobacter aerogenes", "setting": "[4]", "result": ">32", "unit": "µg/mL"}, {"measurement": "Antimicrobial activity, Enterobacter aerogenes", "setting": "[5]", "result": ">32", "unit": "µg/mL"}, {"measurement": "Antimicrobial activity, Escherichia coli", "setting": "[6]", "result": ">32", "unit": "µg/mL"}, {"measurement": "Antimicrobial activity, Escherichia coli", "setting": "[7]", "result": ">32", "unit": "µg/mL"}, {"measurement": "Antimicrobial activity, Acinetobacter baumannii", "setting": "[8]", "result": ">32", "unit": "µg/mL"}, {"measurement": "Antimicrobial activity, Staphylococcus aureus", "setting": "[9]", "result": ">32", "unit": "µg/mL"}, {"measurement": "Antimicrobial activity, Staphylococcus aureus HA-MRSA", "setting": "[10]", "result": ">32", "unit": "µg/mL"}, {"measurement": "Antimicrobial activity, Enterococcus fecalis", "setting": "[11]", "result": ">32", "unit": "µg/mL"}, {"measurement": "Antimicrobial activity, Enterococcus fecalis", "setting": "[12]", "result": ">32", "unit": "µg/mL"}, {"measurement": "Antimicrobial activity, Escherichia coli pKM101", "setting": "[13]", "result": ">32", "unit": "μg/mL"}, {"measurement": "Antimicrobial activity, Salmonella typhimurium -Hisg46", "setting": "[14]", "result": ">32", "unit": "µg/mL"}, {"measurement": "Antimicrobial activity, Salmonella choleraesuis", "setting": "[15]", "result": ">32", "unit": "µg/mL"}, {"measurement": "Antimicrobial activity, Pseudomonas aeruginosa", "setting": "[16]", "result": ">32", "unit": "µg/mL"}, {"measurement": "Antimicrobial activity, Enterococcus faecium", "setting": "[17]", "result": ">32", "unit": "µg/mL"}, {"measurement": "Antimicrobial activity, Moraxella catarrhalis", "setting": "[18]", "result": 10, "unit": "µg/mL"}, {"measurement": "Mutagenic potential in MOLY assay", "setting": "[19]; 10 μg/mL, +S9, 4-Hr Exposure", "result": "Negative"}, {"measurement": "Mutagenic potential in MOLY assay", "setting": "[19]; 10 μg/mL, +S9, 24-Hr Exposure", "result": "Negative"}, {"measurement": "Mutagenic potential in MOLY assay", "setting": "[19]; 10 μg/mL, −S9, 4-Hr Exposure", "result": "Negative"}, {"measurement": "Mutagenic potential in MOLY assay", "setting": "[19]; 10 μg/mL, −S9, 24-Hr Exposure", "result": "Negative"}, {"measurement": "Mutagenic potential in MOLY assay", "setting": "[19]; 25 μg/mL, +S9, 4-Hr Exposure", "result": "Negative^a"}, {"measurement": "Mutagenic potential in MOLY assay", "setting": "[19]; 25 μg/mL, +S9, 24-Hr Exposure", "result": "Negative"}, {"measurement": "Mutagenic potential in MOLY assay", "setting": "[19]; 25 μg/mL, −S9, 4-Hr Exposure", "result": "Negative"}, {"measurement": "Mutagenic potential in MOLY assay", "setting": "[19]; 25 μg/mL, −S9, 24-Hr Exposure", "result": "Negative"}, {"measurement": "Mutagenic potential in MOLY assay", "setting": "[19]; 50 μg/mL, +S9, 4-Hr Exposure", "result": "Negative"}, {"measurement": "Mutagenic potential in MOLY assay", "setting": "[19]; 50 μg/mL, +S9, 24-Hr Exposure", "result": "Negative"}, {"measurement": "Mutagenic potential in MOLY assay", "setting": "[19]; 50 μg/mL, −S9, 4-Hr Exposure", "result": "Negative"}, {"measurement": "Mutagenic potential in MOLY assay", "setting": "[19]; 50 μg/mL, −S9, 24-Hr Exposure", "result": "Negative"}, {"measurement": "Mutagenic potential in MOLY assay", "setting": "[19]; 100 μg/mL, +S9, 4-Hr Exposure", "result": "Negative"}, {"measurement": "Mutagenic potential in MOLY assay", "setting": "[19]; 100 μg/mL, +S9, 24-Hr Exposure", "result": "Negative"}, {"measurement": "Mutagenic potential in MOLY assay", "setting": "[19]; 100 μg/mL, −S9, 4-Hr Exposure", "result": "Negative"}, {"measurement": "Mutagenic potential in MOLY assay", "setting": "[19]; 100 μg/mL, −S9, 24-Hr Exposure", "result": "Negative"}, {"measurement": "mutation frequency in MOLY assay", "setting": "[19]; presence or absence of S9, non-cytotoxic dose levels, up to 100 μg/mL for 20q", "result": "no mutagenic activity; also recorded: negative response for mutation frequency"}, {"measurement": "AUCinf", "setting": "[20]", "result": 11248, "unit": "ng·h/mL"}, {"measurement": "AUClast", "setting": "[20]", "result": 11219, "unit": "ng·h/mL"}, {"measurement": "Cmax", "setting": "[20]", "result": 9767, "unit": "ng/mL"}, {"measurement": "Tmax", "setting": "[20]", "result": 0.25, "unit": "h"}, {"measurement": "t1/2", "setting": "[20]", "result": 1.9, "unit": "h"}, {"measurement": "plasma drug concentration at the 24 hr time point", "setting": "[21]", "result": "lower than the limit of quantitation"}, {"measurement": "Vero Tox CC50", "setting": "[22]", "result": 25, "unit": "µg/mL"}]}]}
